The kinase profiling compilation of Christmann-Franck et al. (2016)

Assays:
Test in all cases: radiometric filter-binding kinase assay
[1] = test system: AKT1 (human), P31749 [S473D]
AURKA (human) = AURKA (human) (UniProt O14965)
BRSK2 (human) = BRSK2 (human) (UniProt Q8IWQ3)
CHEK2 (human) = CHEK2 (human) (UniProt O96017)
CaMK1 (human) = CaMK1 (human) (UniProt Q14012)
DYRK1A (human) = DYRK1A (human) (UniProt Q13627)
DYRK2 (human) = DYRK2 (human) (UniProt Q92630)
EPHB2 (human) = EPHB2 (human) (UniProt P29323)
EPHB3 (human) = EPHB3 (human) (UniProt P54753)
ERBB4 (human) = ERBB4 (human) (UniProt Q15303)
HIPK2 (human) = HIPK2 (human) (UniProt Q9H2X6)
IKBKE (human) = IKBKE (human) (UniProt Q14164)
MAP2K6 (human) = MAP2K6 (human) (UniProt P52564)
MAP3K11 (human) = MAP3K11 (human) (UniProt Q16584)
MAPK1 (human) = MAPK1 (human) (UniProt P28482)
MAPK10 (human) = MAPK10 (human) (UniProt P53779)
MAPK12 (human) = MAPK12 (human) (UniProt P53778)
MAPK13 (human) = MAPK13 (human) (UniProt O15264)
MAPK3 (human) = MAPK3 (human) (UniProt P27361)
MAPK8 (human) = MAPK8 (human) (UniProt P45983)
MAPKAPK3 (human) = MAPKAPK3 (human) (UniProt Q16644)
MARK2 (human) = MARK2 (human) (UniProt Q7KZI7)
MKNK1 (human) = MKNK1 (human) (UniProt Q9BUB5)
MST4 (human) = MST4 (human) (UniProt Q9P289)
NEK2 (human) = NEK2 (human) (UniProt P51955)
NUAK1 (human) = NUAK1 (human) (UniProt O60285)
PAK4 (human) = PAK4 (human) (UniProt O96013)
PAK7 (human) = PAK7 (human) (UniProt Q9P286)
PLK1 (human) = PLK1 (human) (UniProt P53350)
PRKAA1 or PRKAA2 (rat) = details: accession and sequence are those of the human protein
PRKACA (human) = PRKACA (human) (UniProt P17612)
PRKCA (human) = PRKCA (human) (UniProt P17252)
RPS6KA1 KD1 KD2 (human) = RPS6KA1 KD1 KD2 (human) (UniProt Q15418)
[2] = test system: SGK1 (human), O00141 [S422D]
SYK (human) = SYK (human) (UniProt P43405)

Chain of BRSK2 (human) (Q8IWQ3 whole entry, looked up): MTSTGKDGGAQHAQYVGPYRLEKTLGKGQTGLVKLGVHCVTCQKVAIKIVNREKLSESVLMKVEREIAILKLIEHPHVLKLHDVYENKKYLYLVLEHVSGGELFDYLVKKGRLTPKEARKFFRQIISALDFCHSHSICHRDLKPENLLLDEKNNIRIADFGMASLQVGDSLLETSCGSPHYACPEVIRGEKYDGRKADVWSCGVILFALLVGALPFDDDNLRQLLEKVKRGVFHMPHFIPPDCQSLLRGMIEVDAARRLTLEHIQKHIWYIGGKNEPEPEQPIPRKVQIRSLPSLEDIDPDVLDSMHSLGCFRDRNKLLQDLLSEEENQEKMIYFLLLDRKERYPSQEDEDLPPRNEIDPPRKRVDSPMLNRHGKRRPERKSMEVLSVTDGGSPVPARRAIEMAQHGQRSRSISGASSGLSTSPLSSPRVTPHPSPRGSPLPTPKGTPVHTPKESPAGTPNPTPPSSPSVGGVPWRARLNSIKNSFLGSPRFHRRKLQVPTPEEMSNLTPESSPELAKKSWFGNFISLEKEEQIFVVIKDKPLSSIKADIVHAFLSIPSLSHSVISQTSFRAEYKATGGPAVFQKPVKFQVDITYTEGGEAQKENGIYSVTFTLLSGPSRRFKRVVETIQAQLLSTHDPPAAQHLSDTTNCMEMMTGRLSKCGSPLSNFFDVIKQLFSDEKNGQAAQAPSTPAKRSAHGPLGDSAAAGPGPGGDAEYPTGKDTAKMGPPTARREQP
Chain of NEK2 (human) (P51955 whole entry, looked up): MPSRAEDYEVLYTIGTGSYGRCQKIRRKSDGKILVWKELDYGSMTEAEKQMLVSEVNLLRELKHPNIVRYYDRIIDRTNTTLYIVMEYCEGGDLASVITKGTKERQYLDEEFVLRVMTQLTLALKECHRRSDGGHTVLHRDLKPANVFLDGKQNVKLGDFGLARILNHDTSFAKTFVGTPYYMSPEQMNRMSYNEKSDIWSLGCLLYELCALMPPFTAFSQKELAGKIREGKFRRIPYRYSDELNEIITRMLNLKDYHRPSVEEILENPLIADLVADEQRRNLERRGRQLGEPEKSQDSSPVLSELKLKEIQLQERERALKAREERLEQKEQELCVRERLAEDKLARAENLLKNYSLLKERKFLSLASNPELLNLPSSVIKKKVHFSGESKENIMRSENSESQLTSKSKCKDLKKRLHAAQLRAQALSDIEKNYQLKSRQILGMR
Chain of EPHB3 (human) (P54753 whole entry, looked up): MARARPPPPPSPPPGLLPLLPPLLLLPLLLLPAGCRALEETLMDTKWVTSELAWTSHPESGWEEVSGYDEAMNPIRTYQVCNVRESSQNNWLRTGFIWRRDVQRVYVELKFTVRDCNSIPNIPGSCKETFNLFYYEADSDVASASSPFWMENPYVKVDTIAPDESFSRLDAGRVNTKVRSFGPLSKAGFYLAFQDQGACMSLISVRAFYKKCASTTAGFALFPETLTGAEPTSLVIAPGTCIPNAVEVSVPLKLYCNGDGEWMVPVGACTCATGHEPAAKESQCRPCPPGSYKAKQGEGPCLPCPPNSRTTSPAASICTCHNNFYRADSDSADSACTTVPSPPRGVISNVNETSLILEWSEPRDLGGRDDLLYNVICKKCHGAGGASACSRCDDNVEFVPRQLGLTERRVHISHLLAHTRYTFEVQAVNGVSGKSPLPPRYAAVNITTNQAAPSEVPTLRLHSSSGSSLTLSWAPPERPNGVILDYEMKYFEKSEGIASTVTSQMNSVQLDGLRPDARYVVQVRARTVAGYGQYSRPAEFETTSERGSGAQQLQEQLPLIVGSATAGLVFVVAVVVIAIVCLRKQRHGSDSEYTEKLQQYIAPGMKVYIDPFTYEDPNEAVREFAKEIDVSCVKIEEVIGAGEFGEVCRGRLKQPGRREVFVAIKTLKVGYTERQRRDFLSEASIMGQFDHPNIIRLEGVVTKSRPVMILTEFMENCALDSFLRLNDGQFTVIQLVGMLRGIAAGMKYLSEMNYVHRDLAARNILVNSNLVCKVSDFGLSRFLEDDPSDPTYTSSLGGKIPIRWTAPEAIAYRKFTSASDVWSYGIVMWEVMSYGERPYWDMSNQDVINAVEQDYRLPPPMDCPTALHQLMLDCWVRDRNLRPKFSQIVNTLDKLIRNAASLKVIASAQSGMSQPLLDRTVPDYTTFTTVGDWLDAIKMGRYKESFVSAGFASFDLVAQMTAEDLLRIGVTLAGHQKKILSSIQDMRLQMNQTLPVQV
Chain of PAK7 (human) (Q9P286 whole entry, looked up): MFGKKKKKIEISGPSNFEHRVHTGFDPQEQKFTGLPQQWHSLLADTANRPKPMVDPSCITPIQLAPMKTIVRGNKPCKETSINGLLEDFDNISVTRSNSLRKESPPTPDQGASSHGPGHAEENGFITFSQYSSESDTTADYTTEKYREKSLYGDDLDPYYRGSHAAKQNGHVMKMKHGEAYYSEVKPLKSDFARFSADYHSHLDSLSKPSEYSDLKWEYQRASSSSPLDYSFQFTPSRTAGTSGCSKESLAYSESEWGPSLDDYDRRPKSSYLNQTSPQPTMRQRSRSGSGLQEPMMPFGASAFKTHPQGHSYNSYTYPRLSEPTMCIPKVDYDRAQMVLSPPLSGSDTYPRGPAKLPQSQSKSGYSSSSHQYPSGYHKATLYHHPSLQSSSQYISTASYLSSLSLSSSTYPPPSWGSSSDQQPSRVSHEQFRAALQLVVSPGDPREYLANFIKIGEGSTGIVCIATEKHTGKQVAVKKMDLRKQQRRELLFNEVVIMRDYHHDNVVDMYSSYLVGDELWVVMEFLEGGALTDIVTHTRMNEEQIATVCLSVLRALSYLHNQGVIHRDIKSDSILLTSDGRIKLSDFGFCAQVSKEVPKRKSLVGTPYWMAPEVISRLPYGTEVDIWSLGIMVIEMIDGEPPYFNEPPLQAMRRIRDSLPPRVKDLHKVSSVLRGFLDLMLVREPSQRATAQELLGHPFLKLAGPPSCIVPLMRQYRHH
Chain of MAPK1 (human) (P28482 whole entry, looked up): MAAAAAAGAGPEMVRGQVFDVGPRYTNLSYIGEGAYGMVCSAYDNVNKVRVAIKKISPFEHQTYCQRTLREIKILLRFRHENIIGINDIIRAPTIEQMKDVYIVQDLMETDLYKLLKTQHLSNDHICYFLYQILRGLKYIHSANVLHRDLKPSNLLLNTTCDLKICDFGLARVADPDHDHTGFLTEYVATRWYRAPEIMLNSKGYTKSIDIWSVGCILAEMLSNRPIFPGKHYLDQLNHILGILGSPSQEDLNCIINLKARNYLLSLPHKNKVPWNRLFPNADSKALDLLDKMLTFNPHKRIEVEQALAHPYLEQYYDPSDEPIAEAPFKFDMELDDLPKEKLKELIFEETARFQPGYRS
Chain of MAPK3 (human) (P27361 whole entry, looked up): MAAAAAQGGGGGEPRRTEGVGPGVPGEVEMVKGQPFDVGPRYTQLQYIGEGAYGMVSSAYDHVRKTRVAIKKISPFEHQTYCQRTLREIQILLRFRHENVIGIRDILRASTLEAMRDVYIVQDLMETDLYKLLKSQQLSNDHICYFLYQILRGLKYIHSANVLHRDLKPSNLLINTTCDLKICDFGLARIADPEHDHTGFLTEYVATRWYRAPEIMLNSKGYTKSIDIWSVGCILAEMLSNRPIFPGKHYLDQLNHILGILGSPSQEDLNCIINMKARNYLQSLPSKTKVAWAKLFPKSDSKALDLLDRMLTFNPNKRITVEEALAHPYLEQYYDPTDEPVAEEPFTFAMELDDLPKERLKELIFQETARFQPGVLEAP
Chain of MAPK10 (human) (P53779 whole entry, looked up): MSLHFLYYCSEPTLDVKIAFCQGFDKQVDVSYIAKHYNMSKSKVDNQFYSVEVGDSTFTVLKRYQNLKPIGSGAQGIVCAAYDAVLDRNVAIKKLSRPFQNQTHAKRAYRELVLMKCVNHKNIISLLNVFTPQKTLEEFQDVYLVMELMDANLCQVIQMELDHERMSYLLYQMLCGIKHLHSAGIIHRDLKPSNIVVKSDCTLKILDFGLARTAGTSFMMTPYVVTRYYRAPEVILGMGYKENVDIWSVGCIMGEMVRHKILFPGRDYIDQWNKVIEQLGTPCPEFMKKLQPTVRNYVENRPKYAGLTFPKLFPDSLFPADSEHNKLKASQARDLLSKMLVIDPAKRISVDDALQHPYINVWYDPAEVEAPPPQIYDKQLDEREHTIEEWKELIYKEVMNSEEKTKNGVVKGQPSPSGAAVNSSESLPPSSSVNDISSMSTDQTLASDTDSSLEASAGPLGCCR

## O=c1c(O)c(-c2ccc(O)c(O)c2)oc2cc(O)c(O)c(O)c12
[1]; compound 1.0 µM
  residual activity: 106%
[1]; compound 10.0 µM
  residual activity: 99%
AURKA (human); compound 1.0 µM
  residual activity: 95%
AURKA (human); compound 10.0 µM
  residual activity: 28%
BRSK2 (human); compound 1.0 µM
  residual activity: 71%
BRSK2 (human); compound 10.0 µM
  residual activity: 13%
CHEK2 (human); compound 1.0 µM
  residual activity: 48%
CHEK2 (human); compound 10.0 µM
  residual activity: 5%
CaMK1 (human); compound 1.0 µM
  residual activity: 49%
CaMK1 (human); compound 10.0 µM
  residual activity: 19%
DYRK1A (human); compound 1.0 µM
  residual activity: 71%
DYRK1A (human); compound 10.0 µM
  residual activity: 3%
DYRK2 (human); compound 1.0 µM
  residual activity: 45%
DYRK2 (human); compound 10.0 µM
  residual activity: 1%
EPHB2 (human); compound 1.0 µM
  residual activity: 69%
EPHB3 (human); compound 1.0 µM
  residual activity: 93%
EPHB3 (human); compound 10.0 µM
  residual activity: 61%
ERBB4 (human); compound 1.0 µM
  residual activity: 109%
ERBB4 (human); compound 10.0 µM
  residual activity: 44%
HIPK2 (human); compound 1.0 µM
  residual activity: 62%
HIPK2 (human); compound 10.0 µM
  residual activity: 19%
IKBKE (human); compound 1.0 µM
  residual activity: 69%
IKBKE (human); compound 10.0 µM
  residual activity: 21%
MAP2K6 (human); compound 1.0 µM
  residual activity: 102%
MAP3K11 (human); compound 1.0 µM
  residual activity: 62%
MAP3K11 (human); compound 10.0 µM
  residual activity: 16%
MAPK1 (human); compound 1.0 µM
  residual activity: 107%
MAPK1 (human); compound 10.0 µM
  residual activity: 105%
MAPK10 (human); compound 1.0 µM
  residual activity: 107%
MAPK10 (human); compound 10.0 µM
  residual activity: 89%
MAPK12 (human); compound 1.0 µM
  residual activity: 107%
MAPK12 (human); compound 10.0 µM
  residual activity: 88%
MAPK13 (human); compound 1.0 µM
  residual activity: 96%
MAPK13 (human); compound 10.0 µM
  residual activity: 97%
MAPK3 (human); compound 1.0 µM
  residual activity: 101%
MAPK3 (human); compound 10.0 µM
  residual activity: 54%
MAPK8 (human); compound 1.0 µM
  residual activity: 93%
MAPK8 (human); compound 10.0 µM
  residual activity: 93%
MAPKAPK3 (human); compound 1.0 µM
  residual activity: 92%
MAPKAPK3 (human); compound 10.0 µM
  residual activity: 14%
MARK2 (human); compound 1.0 µM
  residual activity: 86%
MARK2 (human); compound 10.0 µM
  residual activity: 26%
MKNK1 (human); compound 1.0 µM
  residual activity: 61%
MKNK1 (human); compound 10.0 µM
  residual activity: 12%
MST4 (human); compound 1.0 µM
  residual activity: 87%
MST4 (human); compound 10.0 µM
  residual activity: 58%
NEK2 (human); compound 1.0 µM
  residual activity: 86%
NEK2 (human); compound 10.0 µM
  residual activity: 13%
NUAK1 (human); compound 1.0 µM
  residual activity: 33%
NUAK1 (human); compound 10.0 µM
  residual activity: 12%
PAK4 (human); compound 1.0 µM
  residual activity: 50%
PAK4 (human); compound 10.0 µM
  residual activity: 38%
PAK7 (human); compound 1.0 µM
  residual activity: 67%
PAK7 (human); compound 10.0 µM
  residual activity: 55%
PLK1 (human); compound 1.0 µM
  residual activity: 107%
PLK1 (human); compound 10.0 µM
  residual activity: 23%
PRKAA1 or PRKAA2 (rat); compound 1.0 µM
  residual activity: 73%
PRKAA1 or PRKAA2 (rat); compound 10.0 µM
  residual activity: 9%
PRKACA (human); compound 1.0 µM
  residual activity: 109%
PRKACA (human); compound 10.0 µM
  residual activity: 79%
PRKCA (human); compound 1.0 µM
  residual activity: 99%
PRKCA (human); compound 10.0 µM
  residual activity: 80%
RPS6KA1 KD1 KD2 (human); compound 1.0 µM
  residual activity: 51%
RPS6KA1 KD1 KD2 (human); compound 10.0 µM
  residual activity: 15%
[2]; compound 1.0 µM
  residual activity: 87%
[2]; compound 10.0 µM
  residual activity: 24%
SYK (human); compound 1.0 µM
  residual activity: 89%
SYK (human); compound 10.0 µM
  residual activity: 93%

## COC(=O)/C=C/C(=O)OC
[1]; compound 10.0 µM
  residual activity: 93%
[1]; compound 100.0 µM
  residual activity: 94%
[1]; compound 1000.0 µM
  residual activity: 103%
AURKA (human); compound 10.0 µM
  residual activity: 117%
AURKA (human); compound 100.0 µM
  residual activity: 120%
AURKA (human); compound 1000.0 µM
  residual activity: 114%
BRSK2 (human); compound 10.0 µM
  residual activity: 91%
BRSK2 (human); compound 100.0 µM
  residual activity: 99%
BRSK2 (human); compound 1000.0 µM
  residual activity: 108%
CHEK2 (human); compound 10.0 µM
  residual activity: 90%
CHEK2 (human); compound 100.0 µM
  residual activity: 98%
CHEK2 (human); compound 1000.0 µM
  residual activity: 100%
CaMK1 (human); compound 10.0 µM
  residual activity: 88%
CaMK1 (human); compound 100.0 µM
  residual activity: 96%
CaMK1 (human); compound 1000.0 µM
  residual activity: 99%
DYRK1A (human); compound 10.0 µM
  residual activity: 105%
DYRK1A (human); compound 100.0 µM
  residual activity: 109%
DYRK1A (human); compound 1000.0 µM
  residual activity: 113%
DYRK2 (human); compound 10.0 µM
  residual activity: 91%
DYRK2 (human); compound 100.0 µM
  residual activity: 94%
DYRK2 (human); compound 1000.0 µM
  residual activity: 103%
EPHB2 (human); compound 10.0 µM
  residual activity: 118%
EPHB2 (human); compound 100.0 µM
  residual activity: 118%
EPHB2 (human); compound 1000.0 µM
  residual activity: 120%
EPHB3 (human); compound 10.0 µM
  residual activity: 97%
EPHB3 (human); compound 100.0 µM
  residual activity: 105%
EPHB3 (human); compound 1000.0 µM
  residual activity: 114%
ERBB4 (human); compound 10.0 µM
  residual activity: 110%
ERBB4 (human); compound 1000.0 µM
  residual activity: 108%
HIPK2 (human); compound 10.0 µM
  residual activity: 98%
HIPK2 (human); compound 100.0 µM
  residual activity: 101%
HIPK2 (human); compound 1000.0 µM
  residual activity: 94%
IKBKE (human); compound 10.0 µM
  residual activity: 80%
IKBKE (human); compound 100.0 µM
  residual activity: 96%
IKBKE (human); compound 1000.0 µM
  residual activity: 93%
MAP2K6 (human); compound 10.0 µM
  residual activity: 92%
MAP2K6 (human); compound 100.0 µM
  residual activity: 88%
MAP3K11 (human); compound 10.0 µM
  residual activity: 100%
MAP3K11 (human); compound 100.0 µM
  residual activity: 97%
MAPK1 (human); compound 10.0 µM
  residual activity: 85%
MAPK1 (human); compound 1000.0 µM
  residual activity: 105%
MAPK10 (human); compound 10.0 µM
  residual activity: 103%
MAPK10 (human); compound 100.0 µM
  residual activity: 103%
MAPK10 (human); compound 1000.0 µM
  residual activity: 100%
MAPK12 (human); compound 10.0 µM
  residual activity: 87%
MAPK12 (human); compound 100.0 µM
  residual activity: 96%
MAPK12 (human); compound 1000.0 µM
  residual activity: 104%
MAPK13 (human); compound 10.0 µM
  residual activity: 92%
MAPK13 (human); compound 100.0 µM
  residual activity: 102%
MAPK3 (human); compound 10.0 µM
  residual activity: 95%
MAPK3 (human); compound 100.0 µM
  residual activity: 99%
MAPK3 (human); compound 1000.0 µM
  residual activity: 100%
MAPK8 (human); compound 10.0 µM
  residual activity: 99%
MAPK8 (human); compound 100.0 µM
  residual activity: 92%
MAPK8 (human); compound 1000.0 µM
  residual activity: 109%
MAPKAPK3 (human); compound 10.0 µM
  residual activity: 87%
MAPKAPK3 (human); compound 100.0 µM
  residual activity: 97%
MARK2 (human); compound 10.0 µM
  residual activity: 91%
MARK2 (human); compound 100.0 µM
  residual activity: 108%
MKNK1 (human); compound 10.0 µM
  residual activity: 101%
MKNK1 (human); compound 100.0 µM
  residual activity: 103%
MKNK1 (human); compound 1000.0 µM
  residual activity: 105%
MST4 (human); compound 10.0 µM
  residual activity: 95%
MST4 (human); compound 100.0 µM
  residual activity: 106%
NEK2 (human); compound 10.0 µM
  residual activity: 100%
NEK2 (human); compound 100.0 µM
  residual activity: 100%
NEK2 (human); compound 1000.0 µM
  residual activity: 102%
NUAK1 (human); compound 10.0 µM
  residual activity: 97%
NUAK1 (human); compound 100.0 µM
  residual activity: 104%
NUAK1 (human); compound 1000.0 µM
  residual activity: 101%
PAK4 (human); compound 10.0 µM
  residual activity: 76%
PAK4 (human); compound 100.0 µM
  residual activity: 88%
PAK4 (human); compound 1000.0 µM
  residual activity: 95%
PAK7 (human); compound 10.0 µM
  residual activity: 87%
PAK7 (human); compound 100.0 µM
  residual activity: 125%
PAK7 (human); compound 1000.0 µM
  residual activity: 93%
PLK1 (human); compound 10.0 µM
  residual activity: 94%
PLK1 (human); compound 100.0 µM
  residual activity: 100%
PLK1 (human); compound 1000.0 µM
  residual activity: 91%
PRKAA1 or PRKAA2 (rat); compound 10.0 µM
  residual activity: 106%
PRKAA1 or PRKAA2 (rat); compound 100.0 µM
  residual activity: 104%
PRKAA1 or PRKAA2 (rat); compound 1000.0 µM
  residual activity: 109%
PRKACA (human); compound 10.0 µM
  residual activity: 92%
PRKACA (human); compound 100.0 µM
  residual activity: 96%
PRKACA (human); compound 1000.0 µM
  residual activity: 99%
PRKCA (human); compound 10.0 µM
  residual activity: 99%
PRKCA (human); compound 100.0 µM
  residual activity: 101%
PRKCA (human); compound 1000.0 µM
  residual activity: 105%
RPS6KA1 KD1 KD2 (human); compound 10.0 µM
  residual activity: 91%
RPS6KA1 KD1 KD2 (human); compound 100.0 µM
  residual activity: 92%
RPS6KA1 KD1 KD2 (human); compound 1000.0 µM
  residual activity: 90%
[2]; compound 10.0 µM
  residual activity: 93%
[2]; compound 100.0 µM
  residual activity: 96%
[2]; compound 1000.0 µM
  residual activity: 100%
SYK (human); compound 10.0 µM
  residual activity: 106%
SYK (human); compound 100.0 µM
  residual activity: 118%
SYK (human); compound 1000.0 µM
  residual activity: 116%
